The test system of this experiment is Hi Line Brown chickens. Nature of the experiment: Immunogenicity of synthetic peptide in immunized chickens (IgY production). Particulars: chickens immunized intramuscularly with peptide in Freund's adjuvant; IgY from egg yolk. Type of experiment: in vivo, chicken. An excerpt:
An experimental avian model was used in the experiments, represented by Hi Line Brown chickens, immunized with peptide 2, using complete Freund's adjuvant during the first immunization and incomplete Freund's adjuvant for the three subsequent immunizations, as described in the immunization protocol used. As a positive control, chickens were immunized with BSA, and as a negative control they were not immunized. Antibodies were extracted from egg yolk using an organic solvent and purified by thiophilic chromatography. Indirect ELISA tests were developed to measure the antibody titer and its specificity was determined by indirect ELISA. (25-26)
Experiments used an avian experimental model, represented by Hi Line Brown chickens, immunized with peptide 2, using complete Freund's adjuvant for the first immunization and incomplete Freund's adjuvant for the three subsequent immunizations described in the immunization protocol used. As a positive control, chickens were immunized with BSA, and as a negative control they were not immunized. Antibodies were extracted from egg yolk using an organic solvent and purified by thiophilic chromatography. Indirect ELISA tests were developed to measure the antibody titer and its specificity was determined by indirect ELISA. (25-26)
Experiments used an avian experimental model, represented by Hi Line Brown chickens, immunized with peptide 4, using complete Freund's adjuvant for the first immunization and incomplete Freund's adjuvant for the three subsequent immunizations described in the immunization protocol used. […] Indirect ELISA tests were developed to measure the antibody titer and its specificity was determined by indirect ELISA. […]
Experiments used an avian experimental model, represented by Hi Line Brown chickens, immunized with peptide 5, using complete Freund's adjuvant for the first immunization and incomplete Freund's adjuvant for the three subsequent immunizations described in the immunization protocol used. […] Indirect ELISA tests were developed to measure the antibody titer and its specificity was determined by indirect ELISA (FIG. 14) […]
Consider IPANFDWRQKTHVNPIRNQG [Peptide P05], for which the “Immunogenicity: induction of IgY antibodies recognizing native mite proteins” value (“Immunogenicity: induction” for short) was “induces the production of IgY-anti P05 antibody that recognizes epitopes B and/or T in native proteins of intradomiciliary Dp and Bt mites”.
PIRMQGGCGSCWAFSGV [Peptide P02]: the “Immunogenicity: induction” value was “induces the production of IgY anti P06 antibodies that recognize B and/or T epitopes in native proteins of intradomiciliary Df, Dp and Bt mite species”.
TNACSINGNAPAEIDLRQMR [Peptide P01]: the “Immunogenicity: induction” value was “induces the production of IgY anti P04 antibodies that recognize B and/or T epitopes in native proteins of intradomiciliary Df and Bt mite species”.

The values are drawn from patent publication US9416163B2, “Synthetic oligopeptides designed from mite cysteine proteases and methods for the production of polyclonal IgY antibodies for the detection of intradomiciliary mites” (priority 2009, dated 2016).
